Reference: PMC6283615, “Anilinoquinoline based inhibitors of trypanosomatid proliferation” (PLoS Neglected Tropical Diseases, 2018)
Converted amounts (≈) assume the structure as drawn. Where two headings read alike, the source gives them in different places.

Legend:
[1] = test system: T. cruzi amastigote (Tulahuen strain expressing β-galactosidase); assay: Intracellular T. cruzi assay in 3T3 cells (beta-galactosidase, 96 h); format: cell-based, Trypanosoma cruzi; conditions: for EC50: read-out: T. cruzi amastigote EC50
Outline: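 3T3 cells in phenol-red-free DMEM with 2% FBS were infected with Tulahuen β-galactosidase trypomastigotes, 5×10^4 per well, and exposed to compounds from 50 μM in 1:2 serial dilutions, in triplicate. After 96 h at 37°C, 5% CO2, 500 μM CPRG in PBS with 0.5% NP40 was added for 4 h; absorbance was read at 590–595 nm.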

[2] = test system: T. vivax STIB 719 / ILRAD 560; assay: Ex vivo drug sensitivity assay for T. vivax (48 h); format: cell-based; conditions: Trypanosoma vivax, STIB719, 48 h
Procedure: Ex vivo drug sensitivity assay for T. vivax (48 h): Compounds were tested ex vivo against the STIB 719 / ILRAD 560 T. vivax (drug sensitive) strain which originated from the Y486 strain, isolated from a naturally infected bovine in 1976 in Zaria, Nigeria. Compounds were assayed in at least three separate, independent experiments and an 11-point dilution curve was used to determine the EC50 values. Bloodstream form trypanosomes were harvested from a highly parasitaemic mouse (via cardiac puncture) and were incubated with test compounds for 45 h at 37°C in a humidified atmosphere containing 5% CO2, supported in HMI-9 medium containing 20% bovine serum. Thereafter, Resazurin dye was added to monitor trypanosome viability as described in the preceding section.

Aqueous solubility = format: physicochemical
L. major amastigote = assay: L. major intracellular amastigote luciferase assay in RAW 264.7 macrophages; format: cell-based, Leishmania major; conditions: intracellular amastigotes in RAW 264.7 macrophages, 96 h
Outline: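 Murine RAW 264.7 macrophages were infected overnight with luciferase-expressing L. major metacyclic promastigotes (MOI 1:10). Non-internalized parasites were washed off before 96 h compound exposure (0.5–10,000 ng/mL) at 37°C, 5% CO2.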

T. congolense IL3000 = assay: In vitro drug sensitivity assay for T. congolense (72 h); format: cell-based; conditions: Trypanosoma congolense, IL3000 strain
Procedure: In vitro drug sensitivity assay for T. congolense (72 h): Compounds were tested in vitro for efficacy against the IL3000 T. congolense (drug sensitive) strain which was originally derived from the Trans Mara I strain, isolated from a bovine in 1966 in Kenya. […] Compounds were assayed in at least three separate, independent experiments and an 11-point dilution curve was used to determine the EC50 values. Bloodstream form trypanosomes were supported in HMI-9 medium containing 20% bovine serum and were incubated with test compounds for 69 h at 34°C in a humidified atmosphere containing 5% CO2. Thereafter, 10 μL of Resazurin dye (12.5 mg in 100 mL of phosphate-buffered saline, Sigma-Aldrich, Buchs, Switzerland) was added for an additional 3 h. Plates were read using a fluorescence plate reader (Spectramax, Gemini XS, Bucher Biotec, Basel, Switzerland) using an excitation wavelength of 536 nm and an emission wavelength of 588 nm.

[3] = Human plasma protein binding; format: in vitro ADME; conditions: for fraction unbound: read-out: Human PPB (converted)
[4] = Rat hepatocyte intrinsic clearance; format: in vitro ADME; conditions: for hepatocyte CLint: hepatocytes
LogD7.4 = format: physicochemical; conditions: pH 7.4
[5] = test system: T. b. brucei (strain 427); assay: T. b. brucei proliferation assay (PrestoBlue, 48 h); format: cell-based, Trypanosoma brucei brucei
Outline: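 T. b. brucei strain 427, 2.5×10^3 per well in HMI-9, exposed to compounds from 50 μM in 1:2 dilutions, in triplicate. Incubated 48 h at 37°C, 5% CO2. PrestoBlue added for 4 h more, fluorescence read at ex 530/em 590 nm.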

[6] = Human liver microsome intrinsic clearance; format: in vitro ADME; conditions: for microsomal CLint: liver microsomes
P. fal. D6 = test system: P. fal. D6; design: method as in PMID 26087257, PMID 29301082; conditions: previously reported; cited from earlier work
HepG2 cells = assay: Drug toxicity to HepG2 cells (MTT, 48 h); format: cell-based, human; conditions: tested concentration ranges based on compound solubility
Procedure: HepG2 cells were cultured in complete Minimal Essential Medium prepared by supplementing MEM with 0.19% sodium bicarbonate, 10% heat inactivated FBS, 2 mM L-glutamine, 0.1 mM MEM non-essential amino, 0.009 mg/mL insulin, 1.76 mg/mL bovine serum albumin, 20 units/mL penicillin–streptomycin, and 0.05 mg/mL gentamycin. HepG2 cells cultured in complete MEM were first washed with 1× Hank’s Balanced Salt Solution (Invitrogen #14175095), trypsinized using a 0.25% trypsin/EDTA solution, assessed for viability using trypan blue, and resuspended at 250,000 cells/mL. Using a Tecan EVO Freedom robot, 38.3 μL of cell suspension were added to each well of clear, cell culture-treated 384-well microtiter plates for a final concentration of 9570 liver cells per well, and plated cells were incubated overnight in 5% CO2 at 37°C. Drug plates were prepared with the Tecan EVO Freedom using sterile 96 well plates containing twelve duplicate 1.6-fold serial dilutions of each test compound suspended in DMSO. 4.25 μL of diluted test compound was then added to the 38.3 μL of media in each well providing a […] final dilution of compound. Compounds were tested from a range of 57 ng/mL to 10,000 ng/mL for all assays. Mefloquine was used as a plate control for all assays with a concentration ranging from 113 ng/mL to 20,000 ng/mL. After a 48 h incubation period, 8 μL of a 1.5 mg/mL solution of MTT diluted in complete MEM media was added to each well. All plates were subsequently incubated in the dark for 1 h at room temperature. After incubation, the media and drugs in each well was removed by shaking the plate over sink, and the plates were left to dry in a fume hood for 15 mins. Next, 30 μL of isopropanol acidified by addition of HCl at a final concentration of 0.36% was added to dissolve the formazan dye crystals created by reduction of MTT. Plates are put on a 3-D rotator for 15–30 mins. Absorbance was determined in all wells using a Tecan iControl 1.6 Infinite plate reader.

NIH/3T3 cells = assay: Drug toxicity to 3T3 cells (Alamar Blue, 96 h); format: cell-based
Procedure: In a 96-well plate, 5×10^4 NIH/3T3 (ATCC CRL-1658) cells (purchased from ATCC) in DMEM without phenol red supplemented with 2% FBS were added to each well. Cells were incubated for 2 h to allow for attachment. Compounds were added in triplicates at 200 μM and in serial dilutions 1:2 and incubated at 37°C, 5% CO2 for 96 h. […] Following incubation, 10 μL of Alamar Blue (ThermoFisher) were added to each well and cells incubated at 37°C, 5% CO2 for 4 h. Absorbance was read at 590–595 nm.

[7] = Trypanosoma cruzi, TULAHUEN, NIH3T3, 96 h
[8] = intracellular in 3T3 cells, 96 h

COc1ccc(Nc2ccnc3cc(-c4ccc(S(=O)(=O)N5CCN(C)CC5)cc4)ccc23)cc1Cl [Compound 6]
EC50 [1, 7]: 3800 nM
EC50 [2]: 160 nM
solubility (Aqueous solubility): 100 µM (≈ 52.3 µg/mL)
EC50 (L. major amastigote; Leishmania major, RAW264.7): 1400 nM
EC50 (T. congolense IL3000): 860 nM
Human PPB [3]: 99%
hepatocyte CLint [4]: 44 µL/min/1e6 cells
logD (LogD7.4): < 1
EC50 ([5]; Trypanosoma brucei): 220 nM
microsomal CLint [6]: 270 µL/min/mg

CN1CCN(S(=O)(=O)c2ccc(-c3ccc4c(Nc5ccc(OCc6cccc(F)c6)c(Cl)c5)ccnc4c3)cc2)CC1 [Compound 1]
EC50 [1, 7]: 730 nM
EC50 [2]: 40 nM
solubility (Aqueous solubility): 0.3 µM (≈ 0.185 µg/mL)
EC50 (L. major amastigote; Leishmania major, RAW264.7): 1600 nM
EC50 (P. fal. D6): 19 nM
EC50 (T. congolense IL3000): 140 nM
fraction unbound [3]: < 0.01
Rat Hepatocyte CLint [4]: 20 μL/min/10^6 cells
EC50 ([5]; Trypanosoma brucei): 79 nM
microsomal CLint [6]: 140 µL/min/mg

CN1CCN(c2nsnc2-c2ccc3c(Nc4ccc(OCc5cccc(F)c5)c(Cl)c4)ccnc3c2)CC1 [Compound 15]
EC50 [1, 7]: 4700 nM
EC50 [2]: 210 nM
solubility (Aqueous solubility): < 0.1 µM
EC50 (L. major amastigote; Leishmania major, RAW264.7): 960 nM
EC50 (T. congolense IL3000): 390 nM
hepatocyte CLint [4]: 35 µL/min/1e6 cells
logD (LogD7.4): 4.1
EC50 ([5]; Trypanosoma brucei): 140 nM
microsomal CLint [6]: 35 µL/min/mg

c1cnc(Nc2ccnc3cc(Nc4nccs4)ccc23)cn1 [NEU-2141]
EC50 [1, 8]: 22000 nM
HepG2 TC50 (HepG2 cells): 7100 nM
3T3 TC50 (NIH/3T3 cells): 24000 nM
solubility (Aqueous solubility): 4 µM (≈ 1.28 µg/mL)
EC50 (L. major amastigote): 24000 nM
Human PPB [3]: 91%
Rat Hepatocyte CLint [4]: 270 μL/min/10^6 cells
LogD7.4 (LogD7.4): 3.3
EC50 [5]: 4400 nM
Human Liver Microsome CLint [6]: 68 µL/min/mg

CN1CCN(c2ncc(-c3ccc4c(Nc5ccc6[nH]nnc6c5)ccnc4c3)cn2)CC1 [NEU-1957]
EC50 [1, 8]: > 50000 nM
HepG2 TC50 (HepG2 cells): 14000 nM
3T3 TC50 (NIH/3T3 cells): > 100000 nM
solubility (Aqueous solubility): < 1 µM
EC50 (L. major amastigote): 21000 nM
Human PPB [3]: 91%
Rat Hepatocyte CLint [4]: 51 μL/min/10^6 cells
LogD7.4 (LogD7.4): 3.3
EC50 [5]: 21000 nM
Human Liver Microsome CLint [6]: 120 µL/min/mg

Cc1ccc(-c2ccc3c(Nc4cnccn4)ccnc3c2)o1 [NEU-2133]
EC50 [1, 8]: 790 nM
HepG2 TC50 (HepG2 cells): 50000 nM
3T3 TC50 (NIH/3T3 cells): > 50000 nM
solubility (Aqueous solubility): 4 µM (≈ 1.21 µg/mL)
EC50 (L. major amastigote): 33000 nM
Human PPB [3]: 99%
Rat Hepatocyte CLint [4]: 290 μL/min/10^6 cells
LogD7.4 (LogD7.4): 4
EC50 [5]: 5300 nM
Human Liver Microsome CLint [6]: 190 µL/min/mg

CC(C)(C)OC(=O)Nc1ccc2c(Nc3ccc(OCc4cccc(F)c4)c(Cl)c3)ccnc2c1 [Compound 21]
EC50 [1, 7]: 600 nM
EC50 [2]: 290 nM
solubility (Aqueous solubility): 0.2 µM (≈ 0.0988 µg/mL)
EC50 (L. major amastigote; Leishmania major, RAW264.7): 1100 nM
EC50 (T. congolense IL3000): 830 nM
hepatocyte CLint [4]: 48 µL/min/1e6 cells
logD (LogD7.4): 4.3
EC50 ([5]; Trypanosoma brucei): 150 nM
microsomal CLint [6]: 29 µL/min/mg

N=C(N)c1ccc(/N=N/Nc2ccc(C(=N)N)cc2)cc1 [Diminazene, diminazene aceturate, reference compound]
EC50 [2]: 100 nM
EC50 (T. congolense IL3000): 130 nM
EC50 ([5]; Trypanosoma brucei): 9 nM

Fc1cccc(COc2ccc(Nc3ccnc4cc(-c5cn[nH]c5)ccc34)cc2Cl)c1 [Compound 16]
EC50 [1, 7]: 920 nM
SI (T. cruzi) ([1]; selectivity index calculated relative to 3T3 cells): 2.5
EC50 [2]: 150 nM
solubility (Aqueous solubility): 12 µM (≈ 5.34 µg/mL)
EC50 (L. major amastigote; Leishmania major, RAW264.7): 830 nM
EC50 (T. congolense IL3000): 470 nM
fraction unbound [3]: < 0.01
hepatocyte CLint [4]: 17 µL/min/1e6 cells
logD (LogD7.4): 4.6
EC50 ([5]; Trypanosoma brucei): 110 nM
microsomal CLint [6]: < 3 µL/min/mg

CC[n+]1c(-c2ccccc2)c2cc(N/N=N/c3cccc(C(=N)N)c3)ccc2c2ccc(N)cc21 [Isometamidium, isometamidium chloride, reference compound]
EC50 [2]: 0.12 nM
EC50 (T. congolense IL3000): 6 nM

Cn1ccnc1Nc1ccc2c(Nc3cnccn3)ccnc2c1 [NEU-2147]
EC50 [1, 8]: > 50000 nM
HepG2 TC50 (HepG2 cells): 42000 nM
3T3 TC50 (NIH/3T3 cells): > 100000 nM
solubility (Aqueous solubility): 160 µM (≈ 50.8 µg/mL)
EC50 (L. major amastigote): 5500 nM
Human PPB [3]: 57%
Rat Hepatocyte CLint [4]: 37 μL/min/10^6 cells
LogD7.4 (LogD7.4): 1.7
EC50 [5]: 49000 nM
Human Liver Microsome CLint [6]: 12 µL/min/mg

COc1ccc(Nc2ccnc3cc(-c4cnc(N5CCN(C)CC5)nc4)ccc23)cc1Cl [Compound 23]
EC50 [1, 7]: 620 nM
EC50 [2]: 40 nM
HepG2 TC50 (HepG2 cells): > 3000 nM
3T3 TC50 (NIH/3T3 cells): 4900 nM
solubility (Aqueous solubility): < 1 µM
EC50 (L. major amastigote; Leishmania major, RAW264.7): 2000 nM
EC50 (T. congolense IL3000): 140 nM
Human PPB [3]: 98%
hepatocyte CLint [4]: 45 µL/min/1e6 cells
LogD7.4 (LogD7.4): 4.3
Human Liver Microsome CLint [6]: 170 µL/min/mg
